Assay results taken from US12268694B2, “Combination pharmaceutical agents as RSV inhibitors” (Enanta Pharmaceuticals, Inc., priority 2017, dated 2025).
Read-outs that look alike come from different tables or passages of the source.

Tested on: genotype A, "Long" strain RSV
Assay: RSV-A assay: CPE protection in HEp-2 cells, ATPlite readout
Assay type: cell-based, human respiratory syncytial virus
Description: HEp-2 cells, (originally derived from tumors grown in irradiated-cortisonised weanling rats that had been injected with epidermoid carcinoma tissue from a person's larynx, but later found to be indistinguishable from HeLa cells by PCR DNA analysis), were used for the culturing of genotype A, “Long” strain RSV. Flasks were inoculated with RSV and viral stocks were collected once cytopathic effect (CPE) was greater than 90%. Viral stocks in 25% sucrose media were snap frozen using liquid nitrogen to increase viral stability. Viral stock titers were quantified by tissue culture infectious dose 50% (TCID50) using 8,000 cells per well and 3-fold viral dilutions across a 96-well plate, cultured for 4 days. Viral stock titers were also quantified by a plaque forming unit assay, as described elsewhere.
Following extensive parameter testing, the final assay is run as follows: HEp-2 cells are seeded into the inner 60 wells of a 96-well plate at 8,000 cells per well in a volume of 50 μL using Growth Media (DMEM without phenol red, 1% L-Glut, 1% Penn/Strep, 1% nonessential amino acids, 10% heat-inactivated FBS). 2-fold serial dilutions of control and test compounds are added to the wells in duplicate in a total volume of 25 μL. Viral stock is then added to the wells at a multiplicity of infection (MOI) of 0.1 in a volume of 25 μL, bringing the total volume of each well to 100 μL. The MOI is calculated using the PFU/mL, or TCID50 if unavailable. Each 96-well plate has a control column of 6 wells with cells and virus but no compound (negative control, max CPE), a column with cells but no compound or virus (positive control, minimum CPE), and a column with no cells or virus or compound (background plate/reagent control). The control wells with cells but no virus are given an additional 25 μL of growth media containing an equal quantity of sucrose as those wells receiving the viral stock in order to keep consistent in media and volume conditions. The outer wells of the plate are filled with 125 μL of moat media (DMEM, 1% Penn/Strep) to act as a thermal and evaporative moat around the test wells. Following a 5-day incubation period, the plates are read using ATPlite (50 μL added per well), which quantifies the amount of ATP (a measure of cell health) present in each well. Assay plates are read using the Envision luminometer. In parallel, cytotoxicity is examined on an additional 96-well plate treated in an identical manner, but substituting the 25 μL of viral stock for 25 μL of growth media. […] EC50 ranges are as follows: A <0.4 μM; B 0.4-0.8 μM; C >0.8 μM and CC50 ranges are as follows: A >50 μM; B 10-50 μM; C <10 μM.

[1] = human respiratory syncytial virus, HEp-2, read-out: Human RSV-A (“Long” strain) EC50
[2] = HEp-2 cells, RSV-A Long strain, ATPlite readout, read-out: Human RSV-A (“Long” strain) EC50

Row | Compound | EC50 [1] | EC50 [2]
1 | O=C1Nc2ccccc2C(c2ccccc2)=N[C@@H]1Nc1nnc(-c2ncc(C(F)(F)F)cc2N2CCOC3CC32)o1 (mixture of isomers) [Example 466] | < 400 nM | –
2 | O=C1Nc2ccccc2C(c2ccccc2)=N[C@@H]1Nc1nnc(-c2ncc(C(F)(F)F)cc2N2CCOC(C(F)(F)F)C2)o1 (mixture of isomers) [Example 467] | < 400 nM | –
3 | O=C1Nc2c(F)cccc2C(c2ccccc2)=N[C@@H]1Nc1nnc(-c2cccnc2N2CCOCC2)o1 (single isomer, unassigned) [Example 357] | – | > 800 nM
4 | O=C1Nc2c(F)cccc2C(c2ccccc2)=N[C@@H]1Nc1nnc(-c2ncc(C(F)(F)F)cc2N2CCOCC2)o1 (single isomer, unassigned) [Example 359] | – | < 400 nM
5 | CCOC1(c2nc(-c3nnc(N[C@H]4N=C(c5ccccc5)c5ccccc5NC4=O)o3)c(N3CCOCC3)s2)CCC1 (stereo in doubt) [Example 458] | < 400 nM | –
6 | N#Cc1ccc(-c2nnc(NC3N=C(c4ccccc4)c4ccccc4NC3=O)o2)nc1 (stereo not shown) [Example 24] | 400 to 800 nM | –
7 | COc1cc(-c2nnc(NC3N=C(c4ccccc4)c4ccccc4NC3=O)o2)ccn1 (stereo not shown) [Example 56] | > 800 nM | –
8 | CCOC(=O)c1nnc(NC2N=C(c3ccccc3)c3ccccc3NC2=O)o1 (stereo not shown) [Example 78] | > 800 nM | –
9 | O=C1Nc2ccccc2C(c2ccccc2)=NC1Nc1ncc(-c2ccccc2)s1 (stereo not shown) [Example 85] | > 800 nM | –
10 | O=C1Nc2ccccc2C(c2ccccc2)=NC1Nc1noc(-c2ccccc2)n1 (stereo not shown) [Example 91] | > 800 nM | –
11 | COc1ccc(CN2C(=O)C(C)(N)N=C(c3ccccc3)c3ccccc32)cc1 (stereo not shown) [Example 102] | > 800 nM | –
12 | CS(=O)(=O)c1ccc(-c2nnc(NC3N=C(c4ccccc4)c4ccccc4NC3=O)o2)nc1 (stereo not shown) [Example 107] | > 800 nM | –
13 | COc1ccc(-c2nnc(NC3N=C(c4ccccc4)c4ccccc4NC3=O)o2)nc1Cl (stereo not shown) [Example 109] | > 800 nM | –
14 | Cc1nc(-c2nnc(NC3N=C(c4ccccc4)c4ccccc4NC3=O)o2)ccc1F (stereo not shown) [Example 110] | > 800 nM | –
15 | O=C1Nc2ccccc2C(c2ccccc2)=NC1Nc1nnc(-c2cccc(N3CCOCC3)c2)o1 (stereo not shown) [Example 111] | > 800 nM | –
16 | O=C1Nc2ccccc2C(c2ccccc2)=NC1Nc1nnc(-c2ccc(N3CCOCC3)c(F)c2)o1 (stereo not shown) [Example 112] | > 800 nM | –
17 | Cc1cc(-c2nnc(NC3N=C(c4ccccc4)c4ccccc4NC3=O)o2)ccc1N1CCOCC1 (stereo not shown) [Example 113] | 400 to 800 nM | –
18 | O=C1Nc2ccccc2C(c2ccccc2)=NC1Nc1nnc(-c2ccc(N3CCOCC3)cn2)o1 (stereo not shown) [Example 114] | > 800 nM | –
19 | O=C1Nc2ccccc2C(c2ccccc2)=NC1Nc1nnc(-c2ccc(N3CCOCC3)nc2)o1 (stereo not shown) [Example 115] | < 400 nM | –
20 | O=C1Nc2ccccc2C(c2ccccc2)=NC1Nc1nnc(-c2ccc(NC3CCCCC3)cc2)o1 (stereo not shown) [Example 116] | > 800 nM | –

Row | Compound | EC50 [1] | EC50 [2]
21 | COCCNc1ccc(-c2nnc(NC3N=C(c4ccccc4)c4ccccc4NC3=O)o2)cc1 (stereo not shown) [Example 117] | > 800 nM | –
22 | COCCN(C)c1ccc(-c2nnc(NC3N=C(c4ccccc4)c4ccccc4NC3=O)o2)cc1 (stereo not shown) [Example 118] | > 800 nM | –
23 | O=C1Nc2ccccc2C(c2ccccc2)=NC1Nc1nnc(-c2cc(F)ccc2N2CCOCC2)o1 (stereo not shown) [Example 119] | 400 to 800 nM | –
24 | CS(=O)(=O)c1ccc(-c2nnc(NC3N=C(c4ccccc4)c4ccccc4NC3=O)o2)c(N2CCOCC2)c1 (stereo not shown) [Example 121] | > 800 nM | –
25 | O=C1Nc2ccccc2C(c2ccccc2)=NC1Nc1nnc(-c2ccc(N3CCOCC3)cc2Cl)o1 (stereo not shown) [Example 122] | > 800 nM | –
26 | O=C1Nc2ccccc2C(c2ccccc2)=N[C@@H]1Nc1nnc(-c2ccc(N3CCOCC3)cc2)o1 [Example 124a] | < 400 nM | –
27 | O=C1Nc2ccccc2C(c2ccccc2)=N[C@H]1Nc1nnc(-c2ccc(N3CCOCC3)cc2)o1 [Example 124b] | > 800 nM | –
28 | O=C1Nc2ccccc2C(c2ccccc2)=N[C@@H]1Nc1nnc(-c2ccccc2N2CCOCC2)o1 [Example 125a] | < 400 nM | –
29 | O=C1Nc2ccccc2C(c2ccccc2)=N[C@H]1Nc1nnc(-c2ccccc2N2CCOCC2)o1 [Example 125b] | > 800 nM | –
30 | O=C1Nc2ccccc2C(c2ccccc2)=N[C@@H]1Nc1nnc(-c2ccc(N3CCOCC3)cc2F)o1 [Example 126a] | < 400 nM | –
31 | O=C1Nc2ccccc2C(c2ccccc2)=N[C@H]1Nc1nnc(-c2ccc(N3CCOCC3)cc2F)o1 [Example 126b] | > 800 nM | –
32 | O=C1Nc2ccccc2C(c2ccccc2)=NC1Nc1nnc(-c2ccc(-n3cncn3)cc2N2CCOCC2)o1 (stereo not shown) [Example 128] | 400 to 800 nM | –
33 | O=C1Nc2ccccc2C(c2ccccc2)=NC1Nc1nnc(-c2ccc(C(F)(F)F)nc2N2CCOCC2)o1 (stereo not shown) [Example 130] | 400 to 800 nM | –
34 | O=C1Nc2ccccc2C(c2ccccc2)=NC1Nc1nnc(-c2ncccc2N2CCOCC2)o1 (stereo not shown) [Example 132] | < 400 nM | –
35 | O=C1Nc2ccccc2C(c2ccccc2)=NC1Nc1nnc(-c2cnccc2N2CCOCC2)o1 (stereo not shown) [Example 133] | 400 to 800 nM | –
36 | O=C1Nc2ccccc2C(c2ccccc2)=NC1Nc1nnc(-c2cnccc2N2CCCCC2)o1 (stereo not shown) [Example 134] | > 800 nM | –
37 | O=C1Nc2ccccc2C(c2ccccc2)=NC1Nc1nnc(-c2ncc(N3CCOCC3)cc2Cl)o1 (stereo not shown) [Example 135] | > 800 nM | –
38 | O=C1Nc2ccccc2C(c2ccccc2)=NC1Nc1nnc(-c2ncc(F)cc2N2CCOCC2)o1 (stereo not shown) [Example 137] | – | > 800 nM
39 | O=C1Nc2ccccc2C(c2ccccc2)=NC1Nc1nnc(-c2ncc(F)cc2N2CCOCC2)o1 (stereo not shown) [Example 138] | – | < 400 nM
40 | N#Cc1cnc(-c2nnc(NC3N=C(c4ccccc4)c4ccccc4NC3=O)o2)c(N2CCOCC2)c1 (stereo not shown) [Example 140] | < 400 nM | –

Row | Compound | EC50 [1] | EC50 [2]
41 | O=C1Nc2ccccc2C(c2ccccc2)=NC1Nc1nnc(-c2ccncc2N2CCCCC2)o1 (stereo not shown) [Example 141] | > 800 nM | –
42 | O=C1Nc2ccccc2C(c2ccccc2)=NC1Nc1nnc(-c2ccncc2N2CCOCC2)o1 (stereo not shown) [Example 142] | 400 to 800 nM | –
43 | O=C1Nc2ccccc2C(c2ccccc2)=NC1Nc1nnc(-c2nccnc2N2CCOCC2)o1 (stereo not shown) [Example 143] | < 400 nM | –
44 | O=C1Nc2ccccc2C(c2ccccc2)=NC1Nc1nnc(-c2cc(F)cnc2N2CCOCC2)o1 (stereo not shown) [Example 145] | 400 to 800 nM | –
45 | O=C1Nc2ccccc2C(c2ccccc2)=NC1Nc1nnc(-c2cc(C(F)(F)F)cnc2N2CCOCC2)o1 (stereo not shown) [Example 146] | > 800 nM | –
46 | O=C1Nc2ccccc2C(c2ccccc2)=NC1Nc1nnc(-c2ccc(N3CCOCC3)cc2C(F)(F)F)o1 (stereo not shown) [Example 147] | > 800 nM | –
47 | O=C1Nc2ccccc2C(c2ccccc2)=NC1Nc1nnc(-c2cccc(F)c2N2CCOCC2)o1 (stereo not shown) [Example 148] | > 800 nM | –
48 | O=C1Nc2ccccc2C(c2ccccc2)=NC1Nc1nnc(-c2ccc(F)nc2N2CCOCC2)o1 (stereo not shown) [Example 149] | – | 400 to 800 nM
49 | O=C1Nc2ccccc2C(c2ccccc2)=NC1Nc1nnc(-c2ccc(F)nc2N2CCOCC2)o1 (stereo not shown) [Example 150] | – | < 400 nM
50 | O=C1Nc2ccccc2C(c2ccccc2)=N[C@@H]1Nc1nnc(-c2ccc(F)nc2N2CCOCC2)o1 [Example 151, (S)-3-((5-(6-fluoro-2-morpholinopyridin-3-yl)-1,3,4-oxadiazol-2-yl)amino)-5-phenyl-1,3-dihydro-2H-benzo[e][1,4]diazepin-2-one] | < 400 nM | –
51 | O=C1Nc2ccccc2C(c2ccccc2)=N[C@@H]1Nc1nnc(-c2ccc(C(F)(F)F)cc2N2CCOCC2)o1 [Example 152] | < 400 nM | –
52 | O=C1Nc2ccccc2C(c2ccccc2)=N[C@@H]1Nc1nnc(-c2ccc(C3CC3)nc2N2CCOCC2)o1 [Example 154] | < 400 nM | –
53 | O=C1Nc2ccccc2C(c2ccccc2)=N[C@@H]1Nc1nnc(-c2ccc(=O)[nH]c2N2CCOCC2)o1 [Example 156, (S)-3-((5-(2-morpholino-6-oxo-1,6-dihydropyridin-3-yl)-1,3,4-oxadiazol-2-yl)amino)-5-phenyl-1,3-dihydro-2H-benzo[e][1,4]diazepin-2-one] | > 800 nM | –
54 | N#Cc1ccc(-c2nnc(N[C@H]3N=C(c4ccccc4)c4ccccc4NC3=O)o2)c(N2CCOCC2)c1 [Example 157] | < 400 nM | –
55 | O=C1Nc2ccccc2C(c2ccccc2)=N[C@@H]1Nc1nnc(-c2ccc(F)cc2N2CCOCC2)o1 [Example 159] | < 400 nM | –
56 | O=C1Nc2ccccc2C(c2ccccc2)=N[C@@H]1Nc1nnc(-c2cnc(N3CCOCC3)cn2)o1 [Example 161] | > 800 nM | –
57 | O=C1Nc2ccccc2C(c2ccccc2)=N[C@@H]1Nc1nnc(-c2cnc(C(F)(F)F)nc2N2CCOCC2)o1 [Example 162] | < 400 nM | –
58 | O=C1Nc2ccccc2C(c2ccccc2)=N[C@@H]1Nc1nnc(-c2nc3ccccn3c2N2CCOCC2)o1 [Example 163] | > 800 nM | –
